Measurements taken from patent publication US20230090255A1, “MAGL INHIBITOR, PREPARATION METHOD THEREFOR AND USE THEREOF” (LUNAN PHARMACEUTICAL GROUP CORPORATION, priority 2019, published 2023).

What was measured:
[1] = system: mice pain response induced by hot plate; assay: Mice pain response induced by hot plate; type: in vivo, ICR mice; settings: hot plate 55°C
Description: Female ICR mice (20±2) g were placed on an intelligent hot plate at 55±0.5° C., and latency (s) that the plantar of mice touched the hot plate until the occurrence of a hind paws licking response served as a pain threshold indicator; the mice (response latency <5 s or >30 s) or jumping mice were eliminated.
Grouping and administration were the same as those in Example 40.
The mice were continuously administered intragastrically for 7 consecutive days; the pain threshold of each group of mice was respectively determined once at 30, 60, 90 and 120 min after the final administration; the pain threshold greater than 60 s was calculated by 60 s.

[2] = system: mice with inflammatory pain; assay: Pain threshold of mice with inflammatory pain (complete Freund's adjuvant); type: in vivo, SD mice; settings: complete Freund's adjuvant paw model
Description: […] (180±20) g were injected with a complete Freund’s adjuvant (50 µL/piece) at the right rear plantar of mice, and mice in the control group were injected with the corresponding volume of 0.5% sodium carboxymethylcellulose to establish a paw edema inflammatory pain model. After modeling, the mice were administered for 7 d continuously, and administered intragastrically once per day. Pain thresholds (s) of the mice were respectively determined on the 1st, 3rd and 7th day before administration and after modeling at different periods of time.
Grouping and administration were the same as those of Example 40.

[3] = system: irritable bowel syndrome rats; assay: Irritable bowel syndrome rats induced by early maternal separation; type: in vivo, SD rats; parameters: AWR scoring: scale not given here; settings: IBS rats
Description: The newborn SD male rats were separated from the mother rat in lactation period for 3 h every day on the 2nd to the 21st day after the birth of the newborn SD rats, namely, the mother rat in lactation period was taken out of the cage at 8:30 a.m., and then the newborn rats were removed from the initial cage and put to another separate cage, then the cage was transferred to an adjacent room, then the newborn rats were returned to the initial cage 3 h later, namely, at 11:30 such that the newborn rats and the mother rat got together; the newborn rats were weaned on the 22nd day after birth and separated from the initial cage on the 30th day, grouped on the 60th day, and administered, 20 d in total.
Intragastric administration was performed within the administration period once a day with continuous administration for 20 d.
Test indicators: abdominal withdrawal reflex (AWR); test method: rats were fasted 18 h before the experiment and drank water freely, and narcotized with diethyl ether; then an air sac coated with paraffin oil was inserted into the rats’ colorectum for 4.0 cm, and a catheter outside the anus was fixed at the root of the rat tail with an adhesive tape, and connected with an injection syringe and a sphygmomanometer via three links. The rats were put to an organic glass inspection box (20 cmx12 cm×9 cm), after the rats were awake and fully adapted to the environment for 30 min, the experiment was started. 20, 40 and 60 mm Hg of pressure were respectively applied on the rats, and continuous expansion was performed for 20 s each time with a stimulus interval of 4 min; each pressure was performed for 3 times repeatedly for AWR scoring.
At the end of the experiment, the animals were dissected and weighed, and narcotized to take blood, then the content of 5-HT in serum was determined by high performance liquid chromatography. […] slightly with 0.5% sodium carboxymethylcellulose, and then sucked dry with a filter paper, and placed into a cryogenic tube, and preserved at -20° C. for further use, […] chromatography.

ulcerative colitis mice = assay: Mice ulcerative colitis (DSS); type: in vivo, BALB/c mice; settings: DSS mice; for Colon length: four periods; for IL-1 content: serum, ELISA
Source text: Healthy male SPF-level BALB/c mice (8-week old and body mass: (20±2) g).
Modeling: the mice were randomly divided into […] at the end of the quarantine, 10 pieces for each group. The mice in the normal group drank normal water freely, and the rest groups of mice drank 1.0%-1.5% DSS solution freely for modeling, 7 d later after modeling, the mice in the modeling group drank normal water freely for 7 d, and 14 d served as a modeling period for four continuous periods, and the mice in the modeling group were administered at the same time.
End point of the experiment: experimental administration was performed for four periods, and dissection was performed on the 3rd and 4th day of the recovery period of the 4th period.
Test indicators: the mice were weighed twice a week after the beginning of the administration; diarrhea and hematochezia of the mice were observed, and times of hematochezia were recorded.
At the end of the experiment, the mice were dissected and weighed, and narcotized to take blood, then serum was preserved at -80° C. Spleen was taken and weighed to calculate the spleen index. The content of IL-1β in serum was detected via ELISA. Colorectum was cut and taken to measure the length of colorectum, then immobilized by formaldehyde and dyed by HE to detect the pathological change.

[4] = system: mice writhing caused by acetic acid; assay: Mice writhing caused by acetic acid; settings: for Writhing times: 1 h before 0.7% acetic acid ip, within 20 min; for Latent time: time to first writhing

O=C(Nc1ccc(Cl)cc1)C1CCN(C(=O)c2ccc(O)cc2)CC1 [MAGLZ-II-10]
Pain threshold ([1]; high dose 30 mg/kg ig 7 d, 30 min after final administration): 17.73 ± 6.20 s
Pain threshold ([1]; high dose 30 mg/kg ig 7 d, 60 min): 19.77 ± 6.73 s
Pain threshold ([1]; high dose 30 mg/kg ig 7 d, 90 min): 25.25 ± 7.01 s
Pain threshold ([1]; high dose 30 mg/kg ig 7 d, 120 min): 24.90 ± 5.73 s
Pain threshold ([1]; low dose 7.5 mg/kg ig 7 d, 30 min after final administration): 16.37 ± 6.00 s
Pain threshold ([1]; low dose 7.5 mg/kg ig 7 d, 60 min): 17.93 ± 5.75 s
Pain threshold ([1]; low dose 7.5 mg/kg ig 7 d, 90 min): 19.24 ± 4.72 s
Pain threshold ([1]; low dose 7.5 mg/kg ig 7 d, 120 min): 19.14 ± 4.63 s
Pain threshold ([1]; middle dose 15 mg/kg ig 7 d, 30 min after final administration): 16.67 ± 5.97 s
Pain threshold ([1]; middle dose 15 mg/kg ig 7 d, 60 min): 18.79 ± 5.95 s
Pain threshold ([1]; middle dose 15 mg/kg ig 7 d, 90 min): 22.43 ± 5.31 s
Pain threshold ([1]; middle dose 15 mg/kg ig 7 d, 120 min): 20.60 ± 4.64 s
Pain threshold ([2]; high dose 30 mg/kg ig once per day, 0 d): 12.93 ± 2.26 s
Pain threshold ([2]; high dose 30 mg/kg ig once per day, 1 d): 5.67 ± 0.93 s
Pain threshold ([2]; high dose 30 mg/kg ig once per day, 3 d): 7.95 ± 0.66 s
Pain threshold ([2]; high dose 30 mg/kg ig once per day, 7 d): 8.93 ± 0.61 s
Pain threshold ([2]; low dose 7.5 mg/kg ig once per day, 0 d): 12.71 ± 2.47 s
Pain threshold ([2]; low dose 7.5 mg/kg ig once per day, 1 d): 5.59 ± 0.89 s
Pain threshold ([2]; low dose 7.5 mg/kg ig once per day, 3 d): 7.15 ± 0.59 s
Pain threshold ([2]; low dose 7.5 mg/kg ig once per day, 7 d): 8.33 ± 0.57 s
Pain threshold ([2]; middle dose 15 mg/kg ig once per day, 0 d): 12.77 ± 2.48 s
Pain threshold ([2]; middle dose 15 mg/kg ig once per day, 1 d): 5.62 ± 0.84 s
Pain threshold ([2]; middle dose 15 mg/kg ig once per day, 3 d): 7.18 ± 0.55 s
Pain threshold ([2]; middle dose 15 mg/kg ig once per day, 7 d): 8.36 ± 0.59 s
Colon 5-HT ([3]; high dose 30 mg/kg ig 20 d): 18.66±2.38^∗ µg/mg
Serum 5-HT ([3]; high dose 30 mg/kg ig 20 d): 33.09±2.31^∗ µg/ml
AWR scoring ([3]; high dose 30 mg/kg ig 20 d, 20 mm Hg): 2.89±0.46
AWR scoring ([3]; high dose 30 mg/kg ig 20 d, 40 mm Hg): 3.21±0.35^∗
AWR scoring ([3]; high dose 30 mg/kg ig 20 d, 60 mm Hg): 3.65±0.17^∗
Colon 5-HT ([3]; low dose 7.5 mg/kg ig 20 d): 21.44 ± 2.72 µg/mg
Serum 5-HT ([3]; low dose 7.5 mg/kg ig 20 d): 36.32 ± 3.14 µg/mL
AWR scoring ([3]; low dose 7.5 mg/kg ig 20 d, 20 mm Hg): 2.87±0.39
AWR scoring ([3]; low dose 7.5 mg/kg ig 20 d, 40 mm Hg): 3.43±0.30
AWR scoring ([3]; low dose 7.5 mg/kg ig 20 d, 60 mm Hg): 3.79±0.20
Colon 5-HT ([3]; middle dose 15 mg/kg ig 20 d): 20.97 ± 2.24 µg/mg
Serum 5-HT ([3]; middle dose 15 mg/kg ig 20 d): 38.65 ± 2.68 µg/mL
AWR scoring ([3]; middle dose 15 mg/kg ig 20 d, 20 mm Hg): 2.83±0.47
AWR scoring ([3]; middle dose 15 mg/kg ig 20 d, 40 mm Hg): 3.56±0.22
AWR scoring ([3]; middle dose 15 mg/kg ig 20 d, 60 mm Hg): 3.80±0.17
Total times of hematochezia within the four periods (ulcerative colitis mice; high dose 30 mg/kg ig): 35.15±4.52
Colon length (ulcerative colitis mice; high dose 30 mg/kg ig): 6.35±0.61 cm
IL-1 content (ulcerative colitis mice; high dose 30 mg/kg ig): 47.25 ± 6.37 pg/mL
Total times of hematochezia within the four periods (ulcerative colitis mice; low dose 7.5 mg/kg ig): 38.40±5.02
Colon length (ulcerative colitis mice; low dose 7.5 mg/kg ig): 5.92±0.66 cm
IL-1 content (ulcerative colitis mice; low dose 7.5 mg/kg ig): 51.81 ± 7.86 pg/mL
Total times of hematochezia within the four periods (ulcerative colitis mice; middle dose 15 mg/kg ig): 38.20±7.83
Colon length (ulcerative colitis mice; middle dose 15 mg/kg ig): 5.72±0.60 cm
IL-1 content (ulcerative colitis mice; middle dose 15 mg/kg ig): 50.83 ± 7.79 pg/mL
Writhing times ([4]; high dose 30 mg/kg ig): 24.8±11.1^∗
Latent time ([4]; high dose 30 mg/kg ig): 306.4±90.2^∗ s
Writhing times ([4]; low dose 7.5 mg/kg ig): 34.0±9.1
Latent time ([4]; low dose 7.5 mg/kg ig): 235.4 ± 59.6 s
Writhing times ([4]; middle dose 15 mg/kg ig): 32.8±11.6
Latent time ([4]; middle dose 15 mg/kg ig): 246.2 ± 69.5 s
